Key:
Assay in all cases: combination Emax (second highest fraction inhibited in the dose matrix, 72 h); higher = more inhibition; extreme values may be limits of the assay
[1] = tested on: ASH-3 (Thyroid Gland Carcinoma)
Procedure, shortened: (§1)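 Cell lines grown in DMEM/F12 or RPMI with 10% FBS were plated in 1536-well plates and held 24 hours at 37°C, 5% CO2 before 72 hours of exposure to two-drug dose matrices, with DMSO typically at 0.2%. CellTiter-Glo 2.0 luminescence gave viability, which was converted to inhibition. Vehicle wells were set to 0 and blank wells to 1. Combination Emax is the second-highest inhibition in the matrix, and Bliss excess is the observed combination effect minus the expected EA + EB − EA·EB, where EA and EB are the single-agent effects.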

BT-20 (Breast Carcinoma) = tested on: BT-20 (Breast Carcinoma)
Procedure, shortened: as §1

[2] = tested on: DG-75 (Burkitt's Lymphoma)
Procedure, shortened: as §1

EW-13 (Ewing's Sarcoma) = tested on: EW-13 (Ewing's Sarcoma)
Procedure, shortened: as §1

EW-18 (Ewing's Sarcoma) = tested on: EW-18 (Ewing's Sarcoma)
Procedure, shortened: as §1

GOTO (Neuroblastoma) = tested on: GOTO (Neuroblastoma)
Procedure, shortened: as §1

[3] = tested on: HC-1 (Other Blood Carcinomas)
Procedure, shortened: as §1

[4] = tested on: KLE (Endometrial Carcinoma)
Procedure, shortened: as §1

NB7 (Neuroblastoma) = tested on: NB7 (Neuroblastoma)
Procedure, shortened: as §1

[5] = tested on: NCI-H2347 (Lung Adenocarcinoma)
Procedure, shortened: as §1

[6] = tested on: NCI-H322M (Lung Adenocarcinoma)
Procedure, shortened: as §1

[7] = tested on: NCI-H513 (Other Solid Carcinomas)
Procedure, shortened: as §1

NH-12 (Neuroblastoma) = tested on: NH-12 (Neuroblastoma)
Procedure, shortened: as §1

[8] = tested on: OCUB-M (Breast Carcinoma)
Procedure, shortened: as §1

[9] = tested on: OCUM-1 (Gastric Carcinoma)
Procedure, shortened: as §1

[10] = tested on: PF-382 (T-Lymphoblastic Leukemia)
Procedure, shortened: as §1

[11] = tested on: PFSK-1 (Other Solid Carcinomas)
Procedure, shortened: as §1

[12] = tested on: SCC-3 (B-Cell Non-Hodgkin's Lymphoma)
Procedure, shortened: as §1

[13] = tested on: TGBC11TKB (Gastric Carcinoma)
Procedure, shortened: as §1

U-87-MG (Glioblastoma) = tested on: U-87-MG (Glioblastoma)
Procedure, shortened: as §1

SMILES | combination Emax [1] | combination Emax (BT-20 (Breast Carcinoma)) | combination Emax [2] | combination Emax (EW-13 (Ewing's Sarcoma)) | combination Emax (EW-18 (Ewing's Sarcoma)) | combination Emax (GOTO (Neuroblastoma)) | combination Emax [3] | combination Emax [4] | combination Emax (NB7 (Neuroblastoma)) | combination Emax [5] | combination Emax [6] | combination Emax [7] | combination Emax (NH-12 (Neuroblastoma)) | combination Emax [8] | combination Emax [9] | combination Emax [10] | combination Emax [11] | combination Emax [12] | combination Emax [13] | combination Emax (U-87-MG (Glioblastoma))
Cc1nc(Nc2ncc(C(=O)Nc3c(C)cccc3Cl)s2)cc(N2CCN(CCO)CC2)n1 [Dasatinib] + CC(=O)Nc1cccc(-n2c(=O)n(C3CC3)c(=O)c3c(Nc4ccc(I)cc4F)n(C)c(=O)c(C)c32)c1 [Trametinib] (first compound max 2 µM, 7x7, partner max 1 µM) | 0.855 | 0.68 | 0.316 | 0 | 0.13 | 0.398 | 0.494 | 0.724 | 0.65 | 0.716 | 0.721 | 0.531 | 0.644 | 0.0542 | 0.988 | 0.991 | 0.338 | 0.358 | 0.492 | 0.384
CN(CCO)CC[C@H](CSc1ccccc1)Nc1ccc(S(=O)(=O)NC(=O)c2ccc(N3CCC([C@@H](O)c4ccccc4-c4ccc(Cl)cc4)CC3)cc2)cc1S(=O)(=O)C(F)(F)F [AZD4320] + Cc1cc2ncnn2cc1Nc1ncc2c(n1)n(C1CCOCC1)c(=O)n2C [AZD7648] (first compound max 1 µM, 7x7, partner max 10 µM) | 0.542 | 0.606 | 0.472 | 0.672 | 0.883 | 0.633 | 0.58 | 0.337 | 0.0542 | 0.432 | 0.254 | 0.269 | 0.927 | 0.66 | 0.744 | 0.983 | 0.397 | 0.337 | 0.237 | 0.311
Cc1c2c(nn1C)CSCc1cc(n(C)n1)CSc1cc(c3ccccc3c1)OCCCc1c(C(=O)O)n(C)c3c-2c(Cl)ccc13 [AZD5991] + Cc1cc2ncnn2cc1Nc1ncc2c(n1)n(C1CCOCC1)c(=O)n2C [AZD7648] (first compound max 1 µM, 7x7, partner max 10 µM) | 0.358 | 0.694 | 0.362 | 0.403 | 0.936 | 0.72 | 0.456 | 0.342 | 0.546 | 0.287 | 0.459 | 0.324 | 0.226 | 0.983 | 0.215 | 0.353 | 1 | 0.308 | 0.359 | 0.326

— the supplement of paper PMC11061612
